The text below walks through data of US9763942B2, “Serine/threonine kinase inhibitors” (Array BioPharma Inc., priority 2013, dated 2017).

Molecules are shown by their SMILES. Like-named read-outs stand apart in the source and are kept apart here.

Test [1] addresses T1, human ERK-2 (Mitogen Activated Kinase 1) (Homo sapiens, UniProt P28482).
T1 construct: n-terminal 6-His fusion protein in E. coli and corresponding to aa 8-360; 6-His (N); made in house; host or cells: E. coli
Nature of the test: ERK-2 Enzymatic Assay. In kind it is biochemical. The source says:
Table 1 contains representative data for Examples disclosed herein.

Test [2] concerns PMA-stimulated P90RSK(Ser380) phosphorylation in HepG2 cells. Nature of the test: Cellular P90RSK(Ser380) Phosphorylation Assay. In kind it is cell-based. The note with it: Homo sapiens, 1.5 hours compound incubation, PMA 100 ng/mL 30 minutes, pP90RSK(Ser380) signal normalized to GAPDH, single assay or mean of multiple assays, read-out: Biological Example 2 IC50. The procedure:
Inhibition of PMA-stimulated P90RSK(Ser380) phosphorylation was determined by the following in vitro cellular mechanistic assay, which comprises incubating cells with a compound for 1.5 hours and quantifying fluorescent pP90RSK(Ser380) signal on fixed cells and normalizing to GAPDH signal.
HepG2 cells were obtained from ATCC and grown in DMEM supplemented with 10% fetal bovine serum. Cells were plated in 96-well plates at 35,000 cells/well and allowed to attach overnight at 37° C./5% CO2. Diluted compounds were then added at a final concentration of 0.5% DMSO. After 1.5 hours compound incubation, cells were stimulated with the addition of phorbol 12-myristate 13-acetate (“PMA”) at a final concentration of 100 ng/mL; the PMA stimulation was a 30-minute incubation at 37° C./5% CO2. After the 30-minute PMA stimulation, cells were washed with phosphate buffered saline (“PBS”) and fixed in 3.7% formaldehyde in PBS at room temperature for 15-20 minutes. This was followed by another wash in PBS and then permeabilization in 100% MeOH at room temperature for 10-15 minutes. Following the permeabilization incubation, cells were washed in PBS/0.05% Tween-20, followed by a block in Odyssey blocking buffer (LI-COR Biosciences) for at least 1 hour. Antibodies to phosphorylated P90RSK(Ser380) (Cell Signaling #9335, rabbit monoclonal) and GAPDH (Fitzgerald 10R-G109a, mouse monoclonal) were added to the cells and incubated overnight at 4° C. pP90RSK(Ser380) antibody was used at a 1:250 dilution; GAPDH was used at a 1:10,000 dilution. After washing with PBS/0.05% Tween-20, the cells were incubated with fluorescently-labeled secondary antibodies (Anti-rabbit-Alexa Flour680, Invitrogen Cat#A21109; Anti-mouse-IRDye800CW, Rockland Inc. Cat#610-131-121) for 1 hour. Both secondary antibodies were used at a 1:1000 dilution. Cells were then washed and analyzed for fluorescence at both wavelengths using the Odyssey Infrared Imaging System (LI-COR Biosciences). Phosphorylated P90RSK(Ser380) signal was normalized to GAPDH signal.

Setting [3] is: 5 nM ERK-2 enzyme, 25 μM ATP (observed Km), Omnia peptide S/T17, single assay or mean of multiple assays, read-out: Biological Example 1 IC50.
The mark [4] stands for this setting: ERK-2 enzymatic assay, read-out: IC50.

T1 sequence (P28482 8-360): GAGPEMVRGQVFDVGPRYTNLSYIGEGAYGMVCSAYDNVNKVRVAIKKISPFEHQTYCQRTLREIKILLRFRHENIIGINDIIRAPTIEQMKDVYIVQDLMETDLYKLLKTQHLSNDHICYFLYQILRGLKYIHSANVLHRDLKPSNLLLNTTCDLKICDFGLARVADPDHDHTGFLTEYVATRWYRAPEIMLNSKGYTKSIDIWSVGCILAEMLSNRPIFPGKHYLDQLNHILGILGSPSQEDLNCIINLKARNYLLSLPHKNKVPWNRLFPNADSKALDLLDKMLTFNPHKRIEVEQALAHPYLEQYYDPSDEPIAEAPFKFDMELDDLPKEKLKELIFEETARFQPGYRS

For orientation: IC50 means the concentration that inhibits the measured activity by half. For `Cn1nccc1Nc1nccc(-c2ccc3c(c2)nnn3CC2CCC(F)(F)CC2)n1` [Example 33, 4-(1-((4,4-difluorocyclohexyl)methyl)-1H-benzo[d][1,2,3]triazol-5-yl)-N-(1-methyl-1H-pyrazol-5-yl)pyrimidin-2-amine], the IC50 was 0.004 µM in test [1] (setting [3]), less than 0.1 µM in test [1] (setting [4]) and 0.0633 µM in test [2].

As to `COc1ccc(Cn2nnc3cc(-c4ccnc(Nc5cn(C)nc5C)n4)ccc32)cc1F` [Example 8, N-(1,3-dimethyl-1H-pyrazol-4-yl)-4-(1-(3-fluoro-4-methoxybenzyl)-1H-benzo[d][1,2,3]triazol-5-yl)pyrimidin-2-amine], the 50% inhibitory concentration (IC50) in test [1] (setting [3]) was 0.0029 µM; in test [1] (setting [4]) it was less than 0.1 µM; in test [2] it was 0.0568 µM.

For `Cc1ncccc1Cn1nnc2cc(-c3ccnc(Nc4ccnn4C)c3)ccc21` [Example 56, N-(1-methyl-1H-pyrazol-5-yl)-4-(1-((2-methylpyridin-3-yl)methyl)-1H-benzo[d][1,2,3]triazol-5-yl)pyridin-2-amine], the IC50 in test [1] (setting [3]) was 0.0078 µM; in test [1] (setting [4]), less than 0.1 µM; in test [2], 0.781 µM.

For the compound `COc1ccc([C@@H](c2cnn(C)c2)n2nnc3cc(-c4ccnc(Nc5ccnn5C)n4)ccc32)cc1F` [Example 70], the IC50 is 0.0017 µM in test [1] (setting [3]), less than 0.1 µM in test [1] (setting [4]) and 0.0791 µM in test [2].

For the compound `COc1ccc(Cn2nnc3cc(-c4ccnc(N[C@@H]5CCOC[C@H]5F)n4)ccc32)cc1F` [Example 6, 4-(1-(3-fluoro-4-methoxybenzyl)-1H-benzoyl[d][1,2,3]triazol-5-yl)-N-((3S,4R)-3-fluorotetrahydro-2H-pyran-4-yl)pyrimidin-2-amine], the IC50 in test [1] (setting [3]) was 0.0026 µM; in test [1] (setting [4]), less than 0.1 µM; in test [2], 0.0582 µM.

With `COc1ccc(Cn2nnc3cc(-c4ccnc(Nc5ccnn5C)n4)cnc32)cc1F` [Example 5, 4-(3-(3-fluoro-4-methoxybenzyl)-3H-[1,2,3]triazolo[4,5-b]pyridin-6-yl)-N-(1-methyl-1H-pyrazol-5-yl)pyrimidin-2-amine], the IC50 in test [1] (setting [3]) is 0.0025 µM; in test [1] (setting [4]), less than 0.1 µM; in test [2], 0.0168 µM.

Take `Cn1nccc1Nc1nccc(-c2ccc3c(c2)nnn3CC2CNC2)n1` [Example 62, 4-(1-(azetidin-3-ylmethyl)-1H-benzo[d][1,2,3]triazol-5-yl)-N-(1-methyl-1H-pyrazol-5-yl)pyrimidin-2-amine]: the IC50 is 0.0532 µM in test [1] (setting [3]), less than 0.1 µM in test [1] (setting [4]) and 1.4 µM in test [2].

With `COc1ccc([C@@H](c2nccn2C)n2nnc3cc(-c4ccnc(Nc5ccnn5C)n4)ccc32)cc1F` [Example 72, (S)-4-(1-((3-fluoro-4-methoxyphenyl)(1-methyl-1H-imidazol-2-yl)methyl)-1H-benzo[d][1,2,3]triazol-5-yl)-N-(1-methyl-1H-pyrazol-5-yl)pyrimidin-2-amine], the results for the IC50 in test [1] (setting [3]), in test [1] (setting [4]) and in test [2] were 0.002 µM, less than 0.1 µM and 0.0037 µM, respectively.

Consider `Cn1nccc1Nc1nccc(-c2ccc3c(c2)nnn3CCn2cc(Cl)cn2)n1` [Example 4, 4-(1-(2-(4-chloro-1H-pyrazol-1-yl)ethyl)-1H-benzo[d][1,2,3]triazol-5-yl)-N-(1-methyl-1H-pyrazol-5-yl)pyrimidin-2-amine], for which the results for the IC50 in test [1] (setting [3]), in test [1] (setting [4]) and in test [2] were 0.0019 µM, less than 0.1 µM and 0.0032 µM, respectively.

`CN1CC(n2nnc3cc(-c4ccnc(Nc5ccnn5C)n4)ccc32)C1` [Example 86, N-(1-methyl-1H-pyrazol-5-yl)-4-(1-(1-methylazetidin-3-yl)-1H-benzo[d][1,2,3]triazol-5-yl)pyrimidin-2-amine]: the IC50 in test [1] (setting [3]) was 0.0028 µM; in test [1] (setting [4]) it was less than 0.1 µM; in test [2] it was 0.0218 µM.

For the compound `CCOCCCn1nnc2cc(-c3ccnc(Nc4ccnn4C)n3)ccc21` [Example 43, 4-(1-(3-ethoxypropyl)-1H-benzo[d][1,2,3]triazol-5-yl)-N-(1-methyl-1H-pyrazol-5-yl)pyrimidin-2-amine], the results for the IC50 in test [1] (setting [3]), in test [1] (setting [4]) and in test [2] were 0.0057 µM, less than 0.1 µM and 0.0685 µM, respectively.

As to `Cc1cccc(Cn2nnc3cc(-c4ccnc(Nc5ccnn5C)n4)ccc32)n1` [Example 58, N-(1-methyl-1H-pyrazol-5-yl)-4-(1-((6-methylpyridin-2-yl)methyl)-1H-benzo[d][1,2,3]triazol-5-yl)pyrimidin-2-amine], the figures for the IC50 in test [1] (setting [3]), in test [1] (setting [4]) and in test [2] were 0.0114 µM, less than 0.1 µM and 0.437 µM, respectively.

With `Cn1nccc1Nc1nccc(-c2ccc3c(c2)nnn3CCn2cccn2)n1` [Example 104, 4-(1-(2-(1H-pyrazol-1-yl)ethyl)-1H-benzo[d][1,2,3]triazol-5-yl)-N-(1-methyl-1H-pyrazol-5-yl)pyrimidin-2-amine], the IC50 was 0.0022 µM in test [1] (setting [3]), less than 0.1 µM in test [1] (setting [4]) and 0.0196 µM in test [2].

For the compound `Cn1nccc1Nc1nccc(-c2ccc3c(c2)nnn3Cc2cccc(F)c2F)n1` [Example 1, 4-(1-(2,3-difluorobenzyl)-1H-benzo[1,2,3]triazol-5-yl)-N-(1-methyl-1H-pyrazol-5-yl)pyrimidin-2-amine], the IC50 was 0.0009 µM in test [1] (setting [3]), less than 0.1 µM in test [1] (setting [4]) and 0.0227 µM in test [2].

Consider `Cn1nccc1Nc1cc(-c2ccc3c(c2)nnn3Cc2ccc(Cl)cc2)ccn1` [Example 55, 4-(1-(4-chlorobenzyl)-1H-benzo[d][1,2,3]triazol-5-yl)-N-(1-methyl-1H-pyrazol-5-yl)pyridin-2-amine], for which the IC50 was 0.0051 µM in test [1] (setting [3]), less than 0.1 µM in test [1] (setting [4]) and 0.184 µM in test [2].

As to `Cn1nccc1Nc1nccc(-c2ccc3c(c2)nnn3CC2(c3ccc(OC(F)(F)F)cc3)CC2)n1` [Example 47, N-(1-methyl-1H-pyrazol-5-yl)-4-(1-((1-(4-(trifluoromethoxy)phenyl)cyclopropyl)methyl)-1H-benzo[d][1,2,3]triazol-5-yl)pyrimidin-2-amine], the IC50 in test [1] (setting [4]) was less than 0.1 µM.

As for `Cc1cnn(CCn2nnc3cc(-c4ccnc(Nc5ccnn5C)n4)ccc32)c1` [Example 103, 4-(1-(2-(4-methyl-1H-pyrazol-1-yl)ethyl)-1H-benzo[d][1,2,3]triazol-5-yl)-N-(1-methyl-1H-pyrazol-5-yl)pyrimidin-2-amine], the IC50 in test [1] (setting [4]) was less than 0.1 µM.

As to `COc1ccc(Cn2nnc3cc(-c4ccnc(Nc5cnn(C)n5)n4)ccc32)cc1F` [Example 9, 4-(1-(3-fluoro-4-methoxybenzyl)-1H-benzo[d][1,2,3]triazol-5-yl)-N-(2-methyl-2H-1,2,3-triazol-4-yl)pyrimidin-2-amine], the IC50 in test [1] (setting [4]) is less than 0.1 µM.

With `COc1ccc(Cn2nnc3cc(-c4ccnc(Nc5cnn(C)c5)n4)ccc32)cc1F` [Example 2, 4-(1-(3-fluoro-4-methoxybenzyl)-1H-benzo[d][1,2,3]triazol-5-yl)-N-(1-methyl-1H-pyrazol-4-yl)pyrimidin-2-amine], in test [1] (setting [4]), the IC50 is less than 0.1 µM.

Turning to `Cn1nccc1Nc1nccc(-c2cnc3c(c2)nnn3Cc2ccc(Cl)cc2)n1` [Example 116, 4-(3-(4-chlorobenzyl)-3H-[1,2,3]triazolo[4,5-b]pyridin-6-yl)-N-(1-methyl-1H-pyrazol-5-yl)pyrimidin-2-amine], the half-inhibitory concentration (IC50) in test [1] (setting [4]) is less than 0.1 µM.

With `Cn1nccc1Nc1nccc(-c2ccc3c(c2)nnn3CC(C)(C)O)n1` [Example 60, 2-methyl-1-(5-(2-((1-methyl-1H-pyrazol-5-yl)amino)pyrimidin-4-yl)-1H-benzo[d][1,2,3]triazol-1-yl)propan-2-ol], the concentration for half-maximal inhibition (IC50) in test [1] (setting [4]) is less than 0.1 µM.
